According to patent US20110262508A1, “ANTIMICROBIAL COMPOSITIONS, FORMULATIONS AND USES THEREOF” (priority 2007, published 2011):
Where two headings read alike, the source gives them in different places. Peptide text beside a SMILES is read from it.

How the values were obtained:
[1] = test system: S. typhimurium strain AroA; assay type: cell-based
Method: Synthetic peptides were tested for their ability to inhibit bacterial growth in liquid culture. […] 19606, Acinetobacter spp. ATCC 17903, Acinetobacter spp. ATCC 19004, Escherichia coli strain BL21, S. aureus, S. typhimurium strain AroA, P. aeruginosa or P. pneumotropica. After 5-6 hours of shaking at 37° C., growth was measured as absorbance at 595 nm. As a control, cultures were grown in the presence of 0.1% acetonitrile (i.e., the concentration present in 10 μM peptide).

[2] = test system: A. baumannii ATCC 19606, Acinetobacter spp. ATCC 17903, Acinetobacter spp. ATCC 19004, E. coli BL21, S. aureus, S. typhimurium AroA, P. aeruginosa, P. …; test: Antibacterial spectrum over the serial dilution panel (Table 6); assay type: cell-based; conditions: summary of Table 6
Procedure, shortened: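 Peptides at about 5–10 μM were added to liquid media freshly inoculated with each bacterial strain and shaken 5-6 h at 37° C. Growth read as absorbance at 595 nm; control cultures contained 0.1% acetonitrile.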

Structure (SMILES) | % inhibition of bacterial growth by peptide ([1]; 5 μM peptide) | % inhibition of bacterial growth by peptide ([1]; 10 μM peptide) | % inhibition of bacterial growth by peptide ([1]; 15 μM peptide) | % inhibition of bacterial growth by peptide ([1]; 20 μM peptide) | selectively inhibited growth of Acinetobacter spp. ATCC 19004, and S. aureus [2] | % inhibition of bacterial growth by peptide ([1]; 12.5 μM peptide) | % inhibition of bacterial growth by peptide ([1]; 17.5 μM peptide) | selectively inhibited growth of Acinetobacter spp. ATCC 19004 [2] | selectively inhibited growth of S. aureus [2]
C[C@H](NC(=O)[C@@H](NC(=O)CNC(=O)[C@@H]1CCCN1C(=O)[C@H](Cc1c[nH]cn1)NC(=O)[C@H](CCCNC(=N)N)NC(=O)[C@H](Cc1c[nH]cn1)NC(=O)[C@H](CCCNC(=N)N)NC(=O)[C@H](Cc1c[nH]cn1)NC(=O)[C@H](CCCNC(=N)N)NC(=O)[C@H](CCCNC(=N)N)NC(=O)[C@H](Cc1c[nH]cn1)NC(=O)[C@H](CCCNC(=N)N)NC(=O)[C@H](Cc1c[nH]cn1)NC(=O)[C@H](Cc1c[nH]cn1)NC(=O)[C@@H]1CCCN1C(=O)[C@H](Cc1c[nH]cn1)NC(=O)[C@@H]1CCCN1C(=O)[C@H](CCC(N)=O)NC(=O)[C@H](CCC(N)=O)NC(=O)[C@@H]1CCCN1C(=O)[C@@H](NC(=O)[C@@H](N)CC(N)=O)[C@@H](C)O)[C@@H](C)O)C(=O)O [Ac47] (H-NTPQQPHPHHRHRRHRHRHPGTA-OH; N-terminus and C-terminus assumed) | 13% | 25% | 29% | 50% | selectively inhibited growth | – | – | – | –
C[C@H](NC(=O)[C@H](CO)NC(=O)[C@H](CCCNC(=N)N)NC(=O)CNC(=O)[C@H](CCCNC(=N)N)NC(=O)CNC(=O)[C@H](CO)NC(=O)[C@H](CO)NC(=O)[C@H](CCCNC(=N)N)NC(=O)CNC(=O)[C@@H]1CCCN1C(=O)[C@@H]1CCCN1C(=O)[C@H](CO)NC(=O)[C@H](CCCNC(=N)N)NC(=O)[C@@H]1CCCN1C(=O)[C@H](CO)NC(=O)[C@@H]1CCCN1C(=O)[C@@H](NC(=O)[C@H](CCCNC(=N)N)NC(=O)CNC(=O)[C@@H](N)Cc1c[nH]c2ccccc12)[C@@H](C)O)C(=O)N[C@@H](CO)C(=O)N[C@@H](CS)C(=O)O [Ac66] (H-WGRTPSPRSPPGRSSGRGRSASC-OH; N-terminus and C-terminus assumed) | – | – | 0% | 0% | selectively inhibited growth | 0% | 0% | – | –
CC(C)C[C@H](NC(=O)[C@H](C)NC(=O)[C@H](CS)NC(=O)[C@H](CO)NC(=O)[C@H](C)NC(=O)[C@H](CO)NC(=O)[C@H](CCCNC(=N)N)NC(=O)CN)C(=O)N[C@@H](CCCNC(=N)N)C(=O)N[C@@H](Cc1c[nH]c2ccccc12)C(=O)N[C@@H](C)C(=O)NCC(=O)N1CCC[C@H]1C(=O)N[C@@H](CC(C)C)C(=O)N1CCC[C@H]1C(=O)N[C@@H](CCCCN)C(=O)NCC(=O)N[C@@H](CCCNC(=N)N)C(=O)NCC(=O)N[C@@H](CCCCN)C(=O)N[C@@H](Cc1c[nH]c2ccccc12)C(=O)N[C@@H](Cc1c[nH]c2ccccc12)C(=O)N[C@@H](CS)C(=O)O [Ac68] (H-GRSASCALRWAGPLPKGRGKWWC-OH; N-terminus and C-terminus assumed) | – | – | 0% | 0% | – | 0% | 0% | selectively inhibited growth | –
CSCC[C@H](NC(=O)[C@H](CCCCN)NC(=O)[C@H](CC(C)C)NC(=O)[C@H](CC(C)C)NC(=O)[C@H](Cc1ccccc1)NC(=O)[C@H](Cc1ccccc1)NC(=O)[C@@H](N)Cc1ccccc1)C(=O)N[C@@H](CC(N)=O)C(=O)N[C@@H](Cc1ccc(O)cc1)C(=O)N[C@@H](CC(N)=O)C(=O)N[C@@H](C)C(=O)N[C@H](C(=O)N[C@@H](Cc1c[nH]cn1)C(=O)N[C@@H](CC(C)C)C(=O)N[C@@H](C)C(=O)NCC(=O)N[C@@H](CCCNC(=N)N)C(=O)N[C@@H](CCC(=O)O)C(=O)N[C@@H](Cc1ccccc1)C(=O)O)[C@@H](C)O [Ac88] (H-FFFLLKMNYNATHLAGREF-OH; N-terminus and C-terminus assumed) | 0% | 0% | 0% | 13% | – | – | – | – | selectively inhibited growth
CC[C@H](C)[C@H](NC(=O)[C@H](CCCCN)NC(=O)[C@@H](NC(=O)[C@H](CCCNC(=N)N)NC(=O)[C@H](CO)NC(=O)[C@H](Cc1ccccc1)NC(=O)[C@H](CS)NC(=O)[C@H](CC(N)=O)NC(=O)[C@@H]1CCCN1C(=O)[C@H](CC(=O)O)NC(=O)CN)C(C)C)C(=O)N[C@@H](CC(C)C)C(=O)N[C@@H](C)C(=O)N[C@@H](CS)C(=O)O [Ac96] (H-GDPNCFSRVKILAC-OH) | – | – | 6% | 0% | selectively inhibited growth | 0% | 0% | – | –
CC[C@H](C)[C@H](NC(=O)[C@H](Cc1ccccc1)NC(=O)[C@H](CCC(N)=O)NC(=O)[C@H](CO)NC(=O)[C@H](Cc1ccccc1)NC(=O)[C@H](Cc1c[nH]cn1)NC(=O)[C@H](CCCNC(=N)N)NC(=O)[C@H](Cc1c[nH]cn1)NC(=O)[C@@H](NC(=O)[C@H](CCCNC(=N)N)NC(=O)[C@H](CC(C)C)NC(=O)CNC(=O)[C@H](CC(C)C)NC(=O)[C@H](CC(=O)O)NC(=O)[C@H](CCCNC(=N)N)NC(=O)[C@@H](NC(=O)[C@H](CCC(N)=O)NC(=O)[C@H](CCCNC(=N)N)NC(=O)[C@@H](N)CCCNC(=N)N)C(C)C)C(C)C)C(=O)N[C@@H](CC(N)=O)C(=O)N[C@@H](CCCNC(=N)N)C(=O)N[C@@H](CO)C(=O)NCC(=O)O [Ac173] (H-RRQVRDLGLRVHRHFSQFINRSG-OH; N-terminus and C-terminus assumed) | – | – | 0% | 0% | – | 0% | 0% | selectively inhibited growth | –
CC(C)C[C@H](NC(=O)[C@@H](NC(=O)[C@H](CCC(=O)O)NC(=O)[C@@H](NC(=O)[C@H](CCCNC(=N)N)NC(=O)CNC(=O)[C@@H](N)CCC(N)=O)C(C)C)C(C)C)C(=O)N[C@@H](Cc1ccc(O)cc1)C(=O)N[C@@H](CCCNC(=N)N)C(=O)NCC(=O)N[C@@H](CO)C(=O)N[C@@H](Cc1c[nH]c2ccccc12)C(=O)NCC(=O)N[C@H](C(=O)N[C@H](C(=O)N[C@@H](CS)C(=O)O)C(C)C)[C@@H](C)O [Ac175, reference compound] (H-QGRVEVLYRGSWGTVC-OH; N-terminus and C-terminus assumed) | 3% | 0% | 0% | 4% | – | – | – | – | selectively inhibited growth
